Source: the METLIN SMRT retention time set (Domingo-Almenara et al. 2019)

assay: gradient 5% acetonitrile 3 min, to 50% in 2 min, to 85% in 15 min, held 3 min, 100 µL/min; settings: column: Zorbax Extend-C18 2.1 x 50 mm; eluents: water / acetonitrile, 0.1% formic acid
Summary of the method: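 A Zorbax Extend-C18 column (2.1 × 50 mm, 1.8 μm) run at 100 μL/min with water and acetonitrile, both containing 0.1% formic acid, separated mixtures of ~100 pure standards. The HPLC was coupled to a quadrupole time-of-flight mass spectrometer operated in positive and negative ionization mode, with dead and dwell volumes of 40 μL and 900 μL. Each retention time was taken from a computationally picked adduct peak that was then manually inspected.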

RP-LC retention time [s]	SMILES
1040	COc1ccc(C(=O)Nc2nc3c(s2)CCCC3C(=O)NCCC2=CCCCC2)cc1 (centres undefined)
563	Cc1ccc(NC(=O)N2CCN(c3cnn4c(C)nnc4c3)CC2)cc1
546	O=c1[nH]cc(S(=O)(=O)N2CCOCC2)c(=O)[nH]1
783	COc1ncc(C(=O)NCc2ccccc2C(F)(F)F)cn1
1180	CC(C)Cc1ccc(S(=O)(=O)N2CCc3c(c(-c4nnc(-c5ccc(F)cc5)o4)nn3C)C2)cc1
588	Cc1cc(OCC(O)CNCc2ccco2)ccc1Cl (centres undefined)
693	COc1cccc(NS(=O)(=O)c2cc(-c3[nH]ncc3C(=O)N3CCCC3)oc2C)c1
1300	CC1CCCN(c2nn(CC(=O)Nc3cccc(C(C)C)c3)c(=O)c3ccccc23)C1 (centres undefined)
815	CCn1c(SC)nnc1-c1nn(C)c2c1CN(C(=O)C1CCCCC1)CC2
556	CCOC(=O)CNC(=O)CN(C(=O)N1CCN(C)CC1)S(=O)(=O)c1ccc(C)cc1
717	O=C(CC(F)(F)F)N1CCCC(CCc2nnc(-c3cnccn3)o2)C1 (centres undefined)
867	O=C(COc1ccccc1F)Nc1nnc(-c2cc(Cl)sc2Cl)o1
594	Cc1cc(C)n(CCC(=O)N2CC[C@@H]3CN(S(C)(=O)=O)[C@@H]3C2)n1
962	CC(C)c1cccc(NC(=O)Cn2cc(-c3nc(-c4cccs4)no3)ccc2=O)c1
977	Cc1ccc(C)c(NC(=O)Cn2cccc2-c2nnc(C3CCC3)o2)c1
671	Cc1cccc(N2CCN(C(=O)CN3C(=O)CN(C)C(=O)c4ccccc43)CC2C)c1 (centres undefined)
916	CCN1C(=O)C(C)(C(=O)NCc2ccc(Br)cc2)Oc2cccnc21 (centres undefined)
657	CN(C)c1nc2cc(C(=O)N3CCCC3)sc2n1-c1ccccc1
652	COC(=O)c1ccc(NC(=O)N2CCC(n3cnc4cccnc43)CC2)cc1
666	Cc1cc(OCC(=O)Nc2ccc(Br)cc2F)nc(N2CCCCC2)n1
720	CCn1cc(CN2CCC(C(=O)NCc3ccc(C)cc3)CC2)c2cc(OC)ccc21
566	Cc1ccc(CN2CCC(c3nc(-c4cnccn4)n[nH]3)CC2)o1
703	CNC(=O)N1CCCN(C2=NS(=O)(=O)C(c3ccc(Cl)cc3)=C2C)CC1
832	COc1ccccc1N1CCN(S(=O)(=O)CCNC(=O)CCCc2ccccc2)CC1
876	COc1ccc(-c2csc(Nc3ccc(C(=O)O)cc3)n2)cc1
442	NC(N)=NCc1cccc(I)c1

RP-LC retention time [s]	SMILES
813	CN1c2cc(C(=O)NCc3ccc(F)cc3F)ccc2C(=O)N2CCCCC21 (centres undefined)
677	CCc1cccc(C)c1NC(=O)Cn1c(CC)nc2c(c1=O)CN(Cc1ccccc1)CC2
648	CCn1c(=O)n(CC)c2cc(N3CCCC3)c(NC(=O)NCc3ccc(F)cc3)cc21
566	CN1CCN(C(CNC(=O)c2ccc(Br)o2)c2ccc(N(C)C)cc2)CC1 (centres undefined)
1090	Cc1nn(C(=O)C(C)(C)C)c(C)c1S(=O)(=O)N1CCOCC1
725	COC(=O)c1cccc(NC(=O)C2CC(=O)N(c3ccccc3)C2)c1 (centres undefined)
954	COc1ccc(-c2nnc(Cc3nc(-c4ccc(F)cc4)no3)o2)cc1
1020	Cc1c(C(=O)Nc2nccs2)nnn1-c1ccc2noc(-c3ccc(Cl)cc3)c2c1
657	CC(C)CNc1nnc(-c2nc(C3CC3)no2)c2ccccc12
849	Cc1ccc(S(=O)(=O)N(C)CC2CCOC2)cc1F (centres undefined)
624	CC(C)CNC(=O)C1Cn2cccc2C(=O)N1C (centres undefined)
797	COCc1cc2nn(CC(=O)Nc3ccc(OC)c(F)c3)c(=O)n2c(-c2ccccc2)n1
1020	CCc1nn2c(CNS(=O)(=O)c3ccccc3CC)c(-c3ccccc3)nc2s1
664	CCC(C)N(CCNC(=O)Cc1noc2ccccc12)Cc1ccco1 (centres undefined)
980	O=S(=O)(NCc1ccco1)c1ccc(Cl)c(-c2nnc(-c3ccccc3)o2)c1
757	O=C(c1ccccc1Br)N1CCN=C1N1CCN(c2ccccc2F)CC1
750	C=CCNC(=O)c1cn(-c2ccc(-c3nc(CC)no3)cn2)cn1
866	C#CCOCC1CCN(S(=O)(=O)c2ccccc2)CC1
635	CCN1CCc2nc(-c3ccc(F)cc3)n(CC(=O)N3CCc4ccccc4C3)c(=O)c2C1
642	Cc1nc(CCNC(=O)[C@H]2CCCN2C(=O)c2cccc(F)c2)cs1
688	Cc1ccccc1NC(=O)C1CCc2nc(N3CCCCC3)ncc2C1 (centres undefined)
786	CCc1nc(N2CCC(C(=O)NCc3cccc(C(F)(F)F)c3)CC2)c2c(C)scc2n1
876	CN1C(=O)c2cccnc2Sc2cc(NC(=O)c3cccc(Br)c3)ccc21
602	CCCN1CCN(C(=O)CN2C(=O)C3CCCCN3c3ccc(C(=O)N(C)C)cc32)CC1 (centres undefined)
772	CCc1cc(=O)n(CC(=O)Nc2ccc(OC)c(Cl)c2)c(N2CCOCC2)n1
598	Cc1ccc(-c2nc3cnccn3c2NCCC(=O)N2CCC(N3CCCCC3)CC2)cc1

More lines, now with the values behind:

SMILES	RP-LC retention time [s]
COC(=O)c1sc(-c2ccccc2)cc1NC(=O)c1ccccc1[N+](=O)[O-]	1110
CSC1=C(C#N)C(c2ccco2)C(C(=O)Nc2ccccc2C)=C(C)N1 (centres undefined)	786
CCn1cnc2ccc(-c3noc(Cc4ccccc4Cl)n3)cc21	774
N#Cc1ccc(-c2nc(-c3ccc4c(c3)nnn4CCC(=O)N3CCOCC3)no2)c(F)c1	674
O=C(Cn1ccn2nc(-c3ccccc3)c(CO)c2c1=O)Nc1ccc2c(c1)OCO2	1030
Cc1cccn2cc(C(=O)NCc3cccc(F)c3)nc12	645
Cc1c2cnn(CC(=O)NCCN(C)C)c(=O)c2c(C)n1Cc1ccccc1Cl	655
Cc1ccc(-c2csc(NC(=O)COc3ccc(Cl)cc3C)n2)cc1	1350
CCc1cc(C(=O)Nc2cc(C)ccc2OC)nc2ccnn12	1190
Cc1nc2cccnc2n1C1CCN(C(=O)Nc2ccc(Br)cc2)CC1	669
CCOC(=O)c1ccc(NC(=O)NCC(c2cccnc2)c2cn(C)c3ccccc23)cc1 (centres undefined)	824
Cc1ccn2cc(-c3ccc(NS(=O)(=O)c4ccc(C)c(C)c4)cc3)nc2n1	682
O=C(Nc1ccc(N2CCN(C3CCCC3)C2=O)nc1)c1cccc(F)c1	876
Cc1ccc(C)c(NC(=O)N2CCc3nc(-c4ccc(F)cc4)ncc3C2)c1	987
C[C@H]1C/C=C/[C@H]2[C@@H]3O[C@]3(C)[C@@H](C)[C@H]3[C@H](Cc4ccccc4)NC(=O)[C@]32OC(=O)O/C=C/[C@](C)(O)C1=O	870
COC(=O)c1ccc2c(=O)n(Cc3ccccc3)c(N3CCOCC3)nc2c1	953
O=C(Cc1ccccc1Cl)NC1CCN(c2cc(-c3ccc(F)cc3)[nH]n2)C1 (centres undefined)	775
CCOC(=O)c1noc2nc(C)nc(Nc3cccc(C)c3)c12	1170
O=S(=O)(Nc1ccc(Cn2cncn2)cc1)c1ccc(Br)cc1	747

SMILES	RP-LC retention time [s]
Cc1ccccc1-c1noc(Cn2cnc3c(oc4ccccc43)c2=O)n1	986
COc1c(C(=O)NC(C)c2ccccc2)sc2cccc(F)c12 (centres undefined)	1140
Cc1ccc(NC(=O)C2C(=O)N(CCO)C3(C)CC2c2ccccc2O3)cc1 (centres undefined)	727
Cc1ccc(C(=O)N2CCC(Nc3ncnc4c3CCC4)CC2)cn1	583
Cc1cc(-c2ccc(S(=O)(=O)N3CCC(C(=O)NCc4ccccc4)CC3)o2)n[nH]1	764
CCn1nccc1C(=O)NCCn1c(=O)n(Cc2ccc(C)cc2)c2cccnc21	773
COc1ccc(-c2cc(N3CCC(NC(=O)c4cccc(Br)c4)C3)n[nH]2)cc1 (centres undefined)	738
Cc1noc(-c2cc(=O)n(CC(=O)NCc3cccs3)c3ccccc23)n1	795
Cc1ccc(-c2csc(-n3nc(C)c(CC(=O)Nc4ccc(C)cc4C)c3C)n2)cc1	1260
c1cc2nnc(C3CC3)n2nc1N1CCCC1	775
c1ccc(-c2nc(-c3cnccn3)no2)c(OC2CCN(Cc3ccc4c(c3)CCO4)C2)c1 (centres undefined)	689
Cc1nc2ccn(Cc3cccs3)c(=O)c2cc1C(=O)NC1CCCCC1	801
CC(C)CNC(=O)C1CCN(S(C)(=O)=O)c2cc(Cl)ccc2O1 (centres undefined)	809
CCOC(=O)C1CCN(C(=O)C2CCN(c3nnc(-c4ccc(OC)cc4)o3)CC2)CC1	792
O=C(NC1CC1)[C@@H]1C[C@H](Oc2ccccc2)CN1S(=O)(=O)c1cccc2nsnc12	828
CCc1ccc(-c2nn(C)c(=O)c3c2CCCC3)cc1S(=O)(=O)N1CCC(C(N)=O)CC1	736
CCCSCCCNC(=O)c1cc2n(n1)CCCN(Cc1ccc(F)cc1)C2=O	827
Cc1noc(C)c1-c1ccc(S(=O)(=O)Nc2ccccc2)cc1	912
